Non-standard residues stand in square brackets, D forms with d. Residues, ends and D or L forms follow the SMILES beside them. dTrp(2-Me) = Cc1[nH]c2ccccc2c1C[C@@H](N)C(=O)O
Experiments:
isolated rat hearts = assay: coronary perfusion pressure (CPP) in isolated rat hearts; conditions: versus saline treatment (no peptide)
Description: (§1) In the examples that follow, data is presented for the most preferred lysine containing peptides of the invention. The GH releasing effect was measured in rats according to the method described by R. Deghenghi et al., Life Sci. 54: 1321-1328 (1994). The cardiac protection of the instant peptides has been measured essentially as described in the above cited publication by V. De Gennaro Colonna et al., Europ. J. Pharmacol. 334:201-207 (1997).
The effects on coronary perfusion pressure ("CPP") in isolated rat hearts have been measured using Hexarelin (His-D-Mrp-Ala-Trp-D-Phe-Lys-NH2) as reference compound and compared to that for the GH antagonist His-D-Mrp-D-Lys-Trp-D-Phe-Lys-NH2. An increase of CPP over a saline treatment (i.e., no peptide) of 110±10% was found for Hexarelin, but an increase of 160±25% was found for the antagonist.

[1] = test system: growth hormone deficient rats; conditions: De Gennaro Colonna et al. 1997; cited from earlier work
rats = assay: GH releasing effect in rats; format: in vivo, rat
Description: as §1

Row | Compound | increase of CPP over a saline treatment (isolated rat hearts) [%] | effect on cardiac dysfunction [1] | GH liberation (rats)
1 | Cc1[nH]c2ccccc2c1C[C@@H](NC(=O)[C@@H](N)Cc1cnc[nH]1)C(=O)N[C@@H](C)C(=O)N[C@@H](Cc1c[nH]c2ccccc12)C(=O)N[C@H](Cc1ccccc1)C(=O)N[C@@H](CCCCN)C(N)=O [Hexarelin, His-D-Mrp-Ala-Trp-D-Phe-Lys-NH2] (H-H[dTrp(2-Me)]AW[dF]K-NH2) | 110±10 | reverse the worsening of cardiac dysfunction | –
2 | His-D-Mrp-D-Lys-Trp-D-Phe-Lys-NH2 | 160±25 | – | does not liberate GH
